Structures are written as SMILES.

For the assay, the system named is Mpl-expressing Ba/F3 cell line (human mpl gene). Description: Measurement of thrombopoietin (TPO) activity: viable cell count of Mpl-expressing Ba/F3 cell line (Cell Count Reagent SF, absorbance 450 nm). The assay is classed as cell-based. The following applies: for Concentration: concentration corresponding to the maximum TPO activity value; for TPO activity: maximum TPO activity value, ODt/ODs×100 relative to maximum reaction of human TPO, Mpl-expressing Ba/F3 cells cultured at 37° C. for one day, at the concentration given. The procedure:
The TPO activities of the compounds of the invention obtained in the aforementioned examples were measured by the procedure described below, for evaluation of their thrombopoietic effects.
Establishment of Mpl-expressing Ba/F3 Cell Line
The human mpl gene was cloned from cDNAs of the human erythroleukemia cell line HEL by PCR, and was incorporated into pCOS1 to construct an expression vector. The expression vector was transfected into Ba/F3 cells by electroporation method, and an Mpl-expressing Ba/F3 clone was established.
Measurement of Thrombopoietin (TPO) Activity
The cytokine-eliminated Mpl-expressing Ba/F3 line was plated in a 96-well plate at 25,000 cells/well. DMSO solutions containing the compounds obtained in each of the examples were then prepared to different specified concentration ranges, and each solution was added to the Mpl-expressing Ba/F3 cell line (final DMSO concentration: ≦0.1%), and the cell were cultured at 37° C. for one day. Human TPO (by R&D Systems or Genzyme) was used as a positive control.
Each of the cultured Mpl-expressing Ba/F3 cell lines was subjected to absorbance measurement at a wavelength of 450 nm (reference wavelength: 620 nm), corresponding to the viable cell count, using Cell Count Reagent SF (by Nacalai Tesque Inc.). The TPO activity of each compound for the Mpl-expressing Ba/F3 cell line was determined based on the following formula. TPO activity (%)=ODt/ODs×100
ODs: Absorbance at maximum reaction of human TPO (wavelength: 450-620 nm).
ODt: Absorbance of test solution (wavelength: 450-620 nm).
Tables 1 and 2 show the maximum TPO activity values and the corresponding concentrations of each compound, as obtained by the test described above.

Take `Cc1[nH]c2ccccc2c1CC(=O)N[C@H](CCCNC(=N)N)C(=O)Nc1ccc(C(c2ccc(NC(=O)[C@@H](CCCNC(=N)N)NC(=O)Cc3c(C)[nH]c4ccccc34)cc2)c2ccc(NC(=O)[C@@H](CCCNC(=N)N)NC(=O)Cc3c(C)[nH]c4ccccc34)cc2)cc1.Cl` (stereo partly drawn) [Example 39, tris[4-[N-α-[2-(2-methyl-1H-indol-3-yl)acetyl]-D-arginyl]aminophenyl]methane hydrochloride]: the Concentration turned out to be 12.5 µM and the TPO activity came out at 80.4%.
Regarding `NCCCC[C@@H](NC(=O)c1cccc2cc(O)ccc12)C(=O)Nc1ccc(C(c2ccc(NC(=O)[C@@H](CCCCN)NC(=O)c3cccc4cc(O)ccc34)cc2)c2ccc(NC(=O)[C@@H](CCCCN)NC(=O)c3cccc4cc(O)ccc34)cc2)cc1.O=C(O)C(F)(F)F` [Example 192, tris[4-[N-α-(6-hydroxynaphthalen-1-yl)carbonyl-D-lysyl]aminophenyl]methane trifluoroacetate], the Concentration stood at 25 µM and the TPO activity stood at 71.3%.
The like results for `N[C@H](CCCCNC(=O)Cc1ccccc1)C(=O)Nc1ccc(C(c2ccc(NC(=O)[C@H](N)CCCCNC(=O)Cc3ccccc3)cc2)c2ccc(NC(=O)[C@H](N)CCCCNC(=O)Cc3ccccc3)cc2)cc1.O=C(O)C(F)(F)F` [Example 187, tris[4-[N-ε-(2-phenylacetyl)-D-lysyl]aminophenyl]methane trifluoroacetate] were, in that order, 25 µM and 60.2%.
On to `Cl.NCCCC[C@@H](NC(=O)[C@H](N)Cc1c[nH]c2ccccc12)C(=O)Nc1ccc(C(c2ccc(NC(=O)[C@@H](CCCCN)NC(=O)[C@H](N)Cc3c[nH]c4ccccc34)cc2)c2ccc(NC(=O)[C@@H](CCCCN)NC(=O)[C@H](N)Cc3c[nH]c4ccccc34)cc2)cc1` [Example 161, tris[4-[N-α-(D-tryptophyl)-D-lysyl]aminophenyl]methane hydrochloride], for which the Concentration worked out at 25 µM and the TPO activity worked out at 65.6%.
The like results for `Cl.NCCCC[C@H](NC(=O)Cc1ccsc1)C(=O)Nc1ccc(C(c2ccc(NC(=O)[C@H](CCCCN)NC(=O)Cc3ccsc3)cc2)c2ccc(NC(=O)[C@H](CCCCN)NC(=O)Cc3ccsc3)cc2)cc1` [Example 13, tris[4-[N-α-[2-(thiophen-3-yl)acetyl]-L-lysyl]aminophenyl]methane hydrochloride] were, in that order, 25 µM and 25.7%.
For `Cl.N=C(N)NCCC[C@@H](NC(=O)Cc1ccsc1)C(=O)Nc1ccc(C(c2ccc(NC(=O)[C@@H](CCCNC(=N)N)NC(=O)Cc3ccsc3)cc2)c2ccc(NC(=O)[C@@H](CCCNC(=N)N)NC(=O)Cc3ccsc3)cc2)cc1` (stereo partly drawn) [Example 40, tris[4-[N-α-[2-(thiophen-3-yl)acetyl]-D-arginyl]aminophenyl]methane hydrochloride], the Concentration was determined as 12.5 µM and the TPO activity worked out at 59.0%.
Consider `Cl.NCCCC[C@H](NC(=O)c1cccnc1)C(=O)Nc1ccc(C(c2ccc(NC(=O)[C@H](CCCCN)NC(=O)c3cccnc3)cc2)c2ccc(NC(=O)[C@H](CCCCN)NC(=O)c3cccnc3)cc2)cc1` [Example 17, tris[4-[N-α-(3-pyridylcarbonyl)-L-lysyl]aminophenyl]methane hydrochloride], for which the Concentration worked out at 50 µM and the TPO activity turned out to be 16.5%.
The matching figures for `COc1ccc2[nH]c(C)c(CC(=O)N[C@@H](CCCN)C(=O)Nc3ccc(C(c4ccc(NC(=O)[C@H](CCCN)NC(=O)Cc5c(C)[nH]c6ccc(OC)cc56)cc4)c4ccc(NC(=O)[C@H](CCCN)NC(=O)Cc5c(C)[nH]c6ccc(OC)cc56)cc4)cc3)c2c1.O=C(O)C(F)(F)F` [Example 135, tris[4-[N-α-[2-(5-methoxy-2-methyl-1H-indol-3-yl)acetyl]-L-ornithyl]aminophenyl]methane trifluoroacetate]: 50 µM and 15.8%.
The matching figures for `COc1ccc2[nH]c(C)c(CC(=O)N[C@@H](CCCCN(C)C)C(=O)Nc3ccc(C(c4ccc(NC(=O)[C@H](CCCCN(C)C)NC(=O)Cc5c(C)[nH]c6ccc(OC)cc56)cc4)c4ccc(NC(=O)[C@H](CCCCN(C)C)NC(=O)Cc5c(C)[nH]c6ccc(OC)cc56)cc4)cc3)c2c1` [Example 31]: 25 µM and 96.4%.
The like results for `Cl.NCCCC[C@@H](NC(=O)Cc1cccc(O)c1)C(=O)Nc1ccc(C(c2ccc(NC(=O)[C@@H](CCCCN)NC(=O)Cc3cccc(O)c3)cc2)c2ccc(NC(=O)[C@@H](CCCCN)NC(=O)Cc3cccc(O)c3)cc2)cc1` [Example 159, tris[4-[N-α-[2-(3-hydroxyphenyl)acetyl]-D-lysyl]aminophenyl]methane hydrochloride] were, in that order, 25 µM and 18.6%.
As for `Cl.NCCCC[C@@H](NC(=O)Cc1ccccn1)C(=O)Nc1ccc(C(c2ccc(NC(=O)[C@@H](CCCCN)NC(=O)Cc3ccccn3)cc2)c2ccc(NC(=O)[C@@H](CCCCN)NC(=O)Cc3ccccn3)cc2)cc1` [Example 172, tris[4-[N-α-[2-(pyridin-2-yl)acetyl]-D-lysyl]aminophenyl]methane hydrochloride], the Concentration is 100 µM and the TPO activity came to 24.4%.
The like results for `Cl.NCCCSC[C@H](NC(=O)Cc1c[nH]c2ccccc12)C(=O)Nc1ccc(C(c2ccc(NC(=O)[C@H](CSCCCN)NC(=O)Cc3c[nH]c4ccccc34)cc2)c2ccc(NC(=O)[C@H](CSCCCN)NC(=O)Cc3c[nH]c4ccccc34)cc2)cc1` [Example 33, tris[4-[N-[2-(1H-indol-3-yl)acetyl]-S-(3-aminopropyl)-L-cystyl]aminophenyl]methane hydrochloride] were, in that order, 50 µM and 17.4%.
On to `Cl.NCCCC[C@@H](NC(=O)[C@H](N)Cc1ccc(O)cc1)C(=O)Nc1ccc(C(c2ccc(NC(=O)[C@@H](CCCCN)NC(=O)[C@H](N)Cc3ccc(O)cc3)cc2)c2ccc(NC(=O)[C@@H](CCCCN)NC(=O)[C@H](N)Cc3ccc(O)cc3)cc2)cc1` [Example 160, tris[4-[N-α-(D-tyrosyl)-D-lysyl]aminophenyl]methane hydrochloride], for which the Concentration turned out to be 100 µM and the TPO activity was 22.5%.
The like results for `Cc1[nH]c2ccccc2c1CC(=O)N[C@@H](CCCCN(C)C)C(=O)Nc1ccc(C(c2ccc(NC(=O)[C@H](CCCCN(C)C)NC(=O)Cc3c(C)[nH]c4ccccc34)cc2)c2ccc(NC(=O)[C@H](CCCCN(C)C)NC(=O)Cc3c(C)[nH]c4ccccc34)cc2)cc1` [Example 30, tris[4-[N-α-[2-(2-methyl-1H-indol-3-yl)acetyl]-N-ε-dimethyl-L-lysyl]aminophenyl]methane] were, in that order, 25 µM and 108%.
The like results for `Cc1[nH]c2ccccc2c1CC(=O)N[C@H](CCCCN)C(=O)Nc1ccc(C(c2ccc(NC(=O)[C@@H](CCCCN)NC(=O)Cc3c(C)[nH]c4ccccc34)cc2)c2ccc(NC(=O)[C@@H](CCCCN)NC(=O)Cc3c(C)[nH]c4ccccc34)cc2)cc1` [Example 21, tris[4-[N-α-[2-(2-methyl-1H-indol-3-yl)acetyl]-D-lysyl]aminophenyl]methane] were, in that order, 25 µM and 60.1%.

The values above are taken from patent publication US6887890B2, “Compounds exhibiting thrombopoietin-like activities” (Chugai Seiyaku Kabushiki Kaisha, priority 2000, dated 2005).
